Test results: patent publication US20220313707A1 (priority 2021, published 2022)

Test system: influenza A Hp1N1 virus
Design: species or system mice
Settings: mouse, in vivo

Row | SMILES | 14 d survival rate [%] | Mean days of survival [days] | Survival number (pcs.) | Survival rate (%)
1 | CC1(C)C(=O)N(c2ccc(C#N)c(C(F)(F)F)c2F)C(=S)N1c1ccc(CCCc2ncco2)nc1 [Proxalutamide] | 40 | 11.0 ± 2.83 | 4 | 40
2 | CC1(C)C(=O)N(c2ccc(C#N)c(C(F)(F)F)c2)C(=S)N1c1ccc(OC[C@@H](O)CO)cc1 [SHR-3680] | 50 | 11.3 ± 2.87 | 5 | 50
